In patent US20230399341A1, “7-PHENYL SUBSTITUTED 2-AMINOQUINAZOLINE INHIBITORS OF HPK1” (MERCK SHARP & DOHME LLC, priority 2020, published 2023):

These compounds were tested against T1, Human HPK1, catalytic domain (Homo sapiens, UniProt Q92918) (assay: HPK1-SLP76 TR-FRET Assay). Settings: 75 pM HPK1, ATP 10 uM, SLP76 10 nM, 30 min pre-incubation, 60 min reaction.
T1 sequence (Q92918 1-346): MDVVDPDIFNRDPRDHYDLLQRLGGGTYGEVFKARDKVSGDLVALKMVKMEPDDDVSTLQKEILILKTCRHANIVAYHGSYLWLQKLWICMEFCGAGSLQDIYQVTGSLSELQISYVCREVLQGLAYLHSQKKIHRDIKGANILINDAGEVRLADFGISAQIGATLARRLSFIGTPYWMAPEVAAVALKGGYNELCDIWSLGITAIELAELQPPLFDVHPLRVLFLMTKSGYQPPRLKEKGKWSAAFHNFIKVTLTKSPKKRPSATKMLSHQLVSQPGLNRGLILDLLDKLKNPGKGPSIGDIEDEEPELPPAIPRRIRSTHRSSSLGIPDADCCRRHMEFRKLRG
Format: biochemical

IC50 [nM] | SMILES
45.5 | COc1cc2c(cc1Nc1ncc3ccc(-c4ccc(NC(C)=O)nc4)cc3n1)CNCC2 [Compound 1-30, N-(5-{2-[(6-methoxy-1,2,3,4-tetahydroisoquinolin-7-yl)amino]quinazolin-7-yl}pyridin-2-yl)acetamide]
35.1 | COc1cc2c(cc1Nc1ncc3c(N)cc(-c4c(C)cccc4F)cc3n1)CN(C)CC2 [Compound 2-38, 7-(2-fluoro-6-methylphenyl)-N^2-(6-methoxy-2-methyl-1,2,3,4-tetrahydroisoquinolin-7-yl)quinazoline-2,5-diamine]
11.5 | Cc1c(-c2cc3nc(Nc4ccccc4C4CC4)ncc3c(N)c2F)cnc2c1NCCO2 [Compound 2-26, N~2~-(2-cyclopropylphenyl)-6-fluoro-7-(8-methyl-2,3-dihydro-1H-pyrido[2,3-b][1,4]oxazin-7-yl)quinazoline-2,5-diamine]
0.595 | CNC(=O)C1(c2ccc(Nc3ncc4cc(F)c(-c5cnc6c(c5C)NCCO6)cc4n3)cc2)CCCC1 [Compound 1-120, 1-(4-{[6-fluoro-7-(8-methyl-2,3-dihydro-1H-pyrido[2,3-b][1,4]oxazin-7-yl)quinazolin-2-yl]amino}phenyl)-N-methylcyclopentane-1-carboxamide]
0.325 | COc1cc2c(cc1Nc1ncc3c(N)c(F)c(-c4cnc5c(c4C)NCCO5)cc3n1)CN(C)CC2(C)C [Compound 2-75, 6-fluoro-N~2~-(6-methoxy-2,4,4-trimethyl-1,2,3,4-tetrahydroisoquinolin-7-yl)-7-(8-methyl-2,3-dihydro-1H-pyrido[2,3-b][1,4]oxazin-7-yl)quinazoline-2,5-diamine]
0.105 | CCS(=O)(=O)Cc1ccc(Nc2ncc3c(N)c(F)c(-c4cnc5c(c4C)NCC(C)O5)cc3n2)c(F)c1 (single isomer, unassigned) [Compound 2-125, (R or S)-7-(3,8-dimethyl-2,3-dihydro-1H-pyrido[2,3-b][1,4]oxazin-7-yl)-N2-(4-((ethylsulfonyl)methyl)-2-fluorophenyl)-6-fluoroquinazoline-2,5-diamine]
131 | Cc1ccc(C#N)cc1-c1cc2nc(Nc3ccc(CS(C)(=O)=O)cc3)ncc2c(N)c1F [Compound 2-53, 3-[5-amino-6-fluoro-2-({4-[(methylsulfonyl)methyl]phenyl}amino)quinazolin-7-yl]-4-methylbenzonitrile]
0.117 | COc1cc2c(cc1Nc1ncc3c(N)c(F)c(-c4cnc5c(c4C)NCCO5)cc3n1)CN(C(C)C)CC2 [Compound 2-72, 6-fluoro-N~2~-[6-methoxy-2-(propan-2-yl)-1,2,3,4-tetrahydroisoquinolin-7-yl]-7-(8-methyl-2,3-dihydro-1H-pyrido[2,3-b][1,4]oxazin-7-yl)quinazoline-2,5-diamine]
0.0392 | Cc1c(-c2cc3nc(Nc4ccc([S+](C)[O-])cc4)ncc3c(N)c2F)cnc2c1NCCO2 (stereo not drawn) [Compound 2-170, 6-fluoro-7-(8-methyl-2,3-dihydro-1H-pyrido[2,3-b][1,4]oxazin-7-yl)-N~2~- [4-(methylsulfinyl)phenyl] quinazoline-2,5-diamine]
0.128 | CCc1ccc(Nc2ncc3c(N)c(F)c(-c4cnc5c(c4C)NCCO5)cc3n2)cn1 [Compound 2-173, N~2~-(6-ethylpyridin-3-yl)-6-fluoro-7-(8-methyl-2,3-dihydro-1H-pyrido[2,3-b][1,4]oxazin-7-yl)quinazoline-2,5-diamine]
693 | CCNC(=O)c1ccc(-c2ccc3cnc(Nc4cc5c(cc4OC)CCN(C)C5)nc3c2)cn1 [Compound 1-23, N-ethyl-5-{2-[(6-methoxy-2-methyl-1,2,3,4-tetrahydroisoquinolin-7-yl)amino]quinazolin-7-yl}pyridine-2-carboxamide]
0.221 | CNC(=O)C(C)c1ccc(Nc2ncc3cc(F)c(-c4cnc5c(c4C)NCCO5)cc3n2)cc1 (single isomer, unassigned) [Compound 1-116, (R or S)-2-(4-{[6-fluoro-7-(8-methyl-2,3-dihydro-1H-pyrido[2,3-b][1,4]oxazin-7-yl)quinazolin-2-yl]amino}phenyl)-N-methylpropanamide]
